In patent publication US20230035578A1, “CONTROLLED RELEASE OF COMPOUNDS” (TECHNISCHE UNIVERSITAET MUENCHEN, priority 2019, published 2023):
Counter-ions that a name gives are not always drawn.

Experiment: Drug release from surface-bound mucin layer on PDMS (UV absorbance)
Assay type: physicochemical
Procedure: The coupling reaction was performed as described previously^9. Briefly, PDMS was treated with O2 plasma at 0.4 mbar pressure and an intensity of 30 W for 90 s. The plasma treatment replaces the […] groups on the polymer surface with hydroxyl groups, which enables a covalent attachment of silane molecules. The silane was used as a coupling agent to further allow for attaching porcine gastric mucin to the surface via carbodiimide coupling. Thus, we here used N-[3-Trimethoxysilyl)propyl]ethylenediamine triacetic acid trisodium salt (TMS-EDTA, abcr, Karlsruhe, Germany), which carries three carboxy groups on the other end. TMS-EDTA was diluted to a final concentration of 0.1% (w/v) in 10 mM Acetate buffer (pH=4.5). The activated PDMS samples were then incubated in the silane solution for 5 h at 60° C. Afterwards, the samples were washed in 80% ethanol (Carl Roth) for 1 h to remove unbound residues before they were placed in the oven at 60° C. for another 60 min to stabilize the bond between the PDMS and the silane.
In the next step, the carboxyl groups of the silane were activated. Therefore, the surface was covered with 100 mM MES buffer (pH=5.0) containing 5 mM 1-Ethyl-3-(3-dimethylaminopropyl)-carbodiimid-hydrochloride (EDC, Carl Roth) and 5 mM N-Hydroxysulfosuccinimide (sulfo-NHS, abcr) at RT for 30 min. Afterwards, the EDC-NHS solution was replaced by phosphate-buffered saline (pH=7.4, Lonza, Velviers, Belgium) containing 0.1% (w/v) of purified mucin and stored at 4° C. overnight. Amine groups from the mucin protein core then react with the EDC activated groups of the silane and form a stable covalent bond.
PDMS was allowed to crosslink at 60° C. overnight. Afterwards, this PDMS layer was coated with mucin as described in Section 1.2.
The mucin layer was loaded with the drug by incubating it in a drug-containing solution (TCL or VAC, 0.5 mg/mL) at 4° C. overnight. […] […] Before starting the release experiment, excessive glycerol, drug, and salt were removed and replaced by 2 mL of ultrapure water.
The […], and the release of TCL was tracked spectroscopically with a specord210 spectral photometer (Analytikjena, Jena, Germany) at 360 nm. The amount of released drug was determined by a standard curve which was generated by measuring serial dilutions of a drug solution (see FIG. 1). The release of VAN was also tracked spectroscopically, however, at 282 nm (for calibration curve, see FIG. 2).

With `CN[C@H](CC(C)C)C(=O)N[C@H]1C(=O)N[C@@H](CC(N)=O)C(=O)N[C@H]2C(=O)N[C@H]3C(=O)N[C@H](C(=O)N[C@H](C(=O)O)c4cc(O)cc(O)c4-c4cc3ccc4O)[C@H](O)c3ccc(c(Cl)c3)Oc3cc2cc(c3O[C@@H]2O[C@H](CO)[C@@H](O)[C@H](O)[C@H]2O[C@H]2C[C@](C)(N)[C@H](O)[C@H](C)O2)Oc2ccc(cc2Cl)[C@H]1O` [Vancomycin, Vancomycin hydrochloride] as the compound, how does the “CTCL, vancomycin release” value (Group 1: glycerol, Mg^2+, trigger 150 mM NaCl, time 0 h) read?
Its value is 0.0014 ± 0.0010 mg/mL.

What about the “CTCL, vancomycin release” value (Group 1: glycerol, Mg^2+, trigger 150 mM NaCl, time 0.5 h) of the same compound?
Its value is 0.0051 ± 0.0029 mg/mL.

What about the “CTCL, vancomycin release” value (Group 1: glycerol, Mg^2+, trigger 150 mM NaCl, time 1.0 h) of the same compound?
The value was 0.0083 ± 0.0042 mg/mL.

What about the “CTCL, vancomycin release” value (Group 1: glycerol, Mg^2+, trigger 150 mM NaCl, time 2.0 h) of the same compound?
The value was 0.0098 ± 0.0031 mg/mL.

What about the “CTCL, vancomycin release” value (Group 1: glycerol, Mg^2+, trigger 150 mM NaCl, time 3.0 h) of the same compound?
The value was 0.0097 ± 0.0029 mg/mL.

And the “CTCL, vancomycin release” value (Group 2: glycerol, Mg^2+, water, time 0 h)?
The value was 0.0008 ± 0.0008 mg/mL.

What about the “CTCL, vancomycin release” value (Group 2: glycerol, Mg^2+, water, time 0.5 h) of the same compound?
Its value is 0.0008 ± 0.0011 mg/mL.

And the “CTCL, vancomycin release” value (Group 2: glycerol, Mg^2+, water, time 1.0 h)?
Its value is 0.0022 ± 0.0007 mg/mL.

And the “CTCL, vancomycin release” value (Group 2: glycerol, Mg^2+, water, time 2.0 h)?
The value was 0.0007 ± 0.0009 mg/mL.

What about the “CTCL, vancomycin release” value (Group 2: glycerol, Mg^2+, water, time 3.0 h) of the same compound?
The value was 0.0012 ± 0.0006 mg/mL.

What about the “CTCL, vancomycin release” value (Group 3: no condensation, Mg^2+, trigger 150 mM NaCl, time 0 h) of the same compound?
The value was 0.0018 ± 0.0008 mg/mL.

And the “CTCL, vancomycin release” value (Group 3: no condensation, Mg^2+, trigger 150 mM NaCl, time 0.5 h)?
The value was 0.0024 ± 0.0010 mg/mL.

And the “CTCL, vancomycin release” value (Group 3: no condensation, Mg^2+, trigger 150 mM NaCl, time 1.0 h)?
Its value is 0.0034 ± 0.0009 mg/mL.

And the “CTCL, vancomycin release” value (Group 3: no condensation, Mg^2+, trigger 150 mM NaCl, time 2.0 h)?
The value was 0.0034 ± 0.0003 mg/mL.

And the “CTCL, vancomycin release” value (Group 3: no condensation, Mg^2+, trigger 150 mM NaCl, time 3.0 h)?
The value was 0.0034 ± 0.0003 mg/mL.

What about the “CTCL, vancomycin release” value (Group 4: no condensation, no stabilization, trigger 150 mM NaCl, time 0 h) of the same compound?
The value was 0.0033 ± 0.0022 mg/mL.

And the “CTCL, vancomycin release” value (Group 4: no condensation, no stabilization, trigger 150 mM NaCl, time 0.5 h)?
Its value is 0.0034 ± 0.0014 mg/mL.

What about the “CTCL, vancomycin release” value (Group 4: no condensation, no stabilization, trigger 150 mM NaCl, time 1.0 h) of the same compound?
Its value is 0.0022 ± 0.0005 mg/mL.

What about the “CTCL, vancomycin release” value (Group 4: no condensation, no stabilization, trigger 150 mM NaCl, time 2.0 h) of the same compound?
Its value is 0.0011 ± 0.0010 mg/mL.

What about the “CTCL, vancomycin release” value (Group 4: no condensation, no stabilization, trigger 150 mM NaCl, time 3.0 h) of the same compound?
Its value is 0.0013 ± 0.0011 mg/mL.

And the “release after exposure to physiological trigger” value (Mg^2+, 150 mM NaCl)?
Its value is “release was observed”.

And the “release where the trigger was absent” value (Mg^2+, no trigger)?
The value was “almost no release was observed”.
